Tests used:
[1] = tested on: rabbit model of glaucoma filtration surgery; experiment: Rabbit glaucoma filtration surgery model; assay type: in vivo, New Zealand White rabbits
Description: The rabbit glaucoma surgery model is used to illustrate use of the presently disclosed methods for improving the success of glaucoma filtration surgery. Specifically, an established rabbit model of glaucoma filtration surgery would be used to study the effects of nintedanib 0.2% solution on the wound-healing events after surgery. The surgical procedure is as described in Wong et al. (Wong et al. Invest Ophthalmol Vis Sci. 2003; 44(3):1097-1103). Briefly, a partial thickness 8-0 silk corneal traction suture is placed superiorly, and the eye pulled down. A fornix based conjunctival flap is raised, after which a blunt dissection of the subconjunctival space is performed of approximately 5 mm along the limbus and 8 mm posteriorly. A microvitreoretinal (MVR) blade is used to make a partial-thickness scleral incision 3 to 4 mm behind the limbus, and a scleral tunnel to the corneal stroma is fashioned. A 22-gauge, 25-mm intravenous cannula (Venflon 2; Beckton Dickinson, Oxford, UK) is passed through a scleral tunnel anteriorly until the cannula needle is visible in the clear cornea. Entry into the anterior chamber is made with a cannular needle, which is then withdrawn as the cannula is advanced to the mid-pupillary area. The cannula is trimmed and beveled at its scleral end so that it protrudes 1 mm from the insertion point, and a 10-0 nylon suture is placed to fix the tube to the scleral surface. The conjunctival incision is closed with two interrupted sutures and a central, mattress-type 10-0 nylon suture attached to a needle (B/V 100-4; Ethicon) to give a water-tight closure. One drop each of guttae chloramphenicol and Betnesol-N(Glaxo Wellcome, Uxbridge, UK) ointment is instilled at the end of surgery.
Twenty female New Zealand White rabbits (2-2.4 kg, 12-14 weeks old; Charles River) would be acclimatized for 5 days before the experiments start. Glaucoma surgery would be performed on the left eye as described. After surgery, the rabbits would be arranged into two groups and one group would be treated with vehicle and another with nintedanib 0.2% solution. Treatments would begin immediately after surgery and the treatment would be TID for 2 weeks. The survival of the bleb formed by the surgery and the intraocular pressure (IOP) would be followed for 28 days. Histological analysis of the scar tissue would be performed at the end of the study.

[2] = tested on: patients with medically uncontrolled open-angle glaucoma scheduled for a primary trabeculectomy; experiment: Clinical study of topical nintedanib 0.2% as adjunct therapy to trabeculectomy; assay type: in vivo, human
Description: Topical nintedanib 0.2% as adjunct therapy to increase success of trabeculectomy in a clinical study. A randomized, double-masked, placebo-controlled, 12-month experimental trial to test the effects of topical nintedanib 0.2% on the success rate of trabeculectomy. The study design would be as described by Vandewalle et. al. (Vandewalle et. al. Br J Ophthalmol. 2014, January; 98(1):73-8).
Patients with medically uncontrolled open-angle glaucoma scheduled for a primary trabeculectomy would be enrolled and randomized to receive one drop TID of either nintedanib or placebo solutions. The treatment would start immediately after surgery and would last for a month. Approximately 150 patients would be enrolled in the study.
Surgeries would be performed under general or retrobulbar anaesthesia by experienced surgeons using a modified Moorfields technique. IOP would be measured by Goldmann applanation tonometry. Two measurements would be taken by masked observers and averaged to determine the mean IOP if two values were within 2 mm Hg. A third measurement would be taken if the difference between the first two determinations is >2 mm Hg.
Patients would be examined on day 1; at weeks 1, 2, and 4; and at months 3, 6, and 12 after trabeculectomy. […] The number of postoperative IOP-lowering medications, intra- and postoperative complications, and surgical interventions would also be recorded. […]

**Q.** `COC(=O)c1ccc2c(c1)NC(=O)/C2=C(\Nc1ccc(N(C)C(=O)CN2CCN(C)CC2)cc1)c1ccccc1` [nintedanib, Methyl (3Z)-3-{[(4-{methyl[(4-methylpiperazin-1-yl)acetyl]amino}phenyl)amino] (phenyl)methylidene}-2-oxo-2,3-dihydro-1H-indole-6-carboxylate] was tested. Which “bleb survival at end of study” value ([1]; day 28, no bleb would survive in the vehicle group) did it give?
**A.** most of the bleb would survive

**Q.** What about the “histological analysis of scar tissue at the surgical site” value ([1]; end of study, compared with vehicle group) of the same compound?
**A.** less scar tissue

**Q.** What about the Surgery success outcome ([1]; nintedanib 0.2% solution TID for 2 weeks after surgery, compared with vehicle group) of the same compound?
**A.** significantly prolonged

**Q.** What about the “bleb survival (survival curve of the bleb after surgery, FIG. 2)” value ([1]; nintedanib 0.2% solution TID for 2 weeks, followed for 28 days, compared with vehicle group) of the same compound?
**A.** substantially prolonged

**Q.** And the “IOP during the follow up period after the surgery (FIG. 3)” value ([1]; nintedanib 0.2% solution TID for 2 weeks, followed for 28 days, IOP increased gradually in vehicle group)?
**A.** below 20 mm

**Q.** What about the “IOP compared to baseline” value ([2]; 12-month visit, one drop TID for a month after surgery) of the same compound?
**A.** effectively reduced

**Q.** And the “absolute success rate of glaucoma surgery (FIG. 4)” value ([2]; vs the placebo group, differences statistically significant at time points after 6 months)?
**A.** higher

Source: patent publication US10688092B2, “Compositions and methods of using nintedanib for improving glaucoma surgery success” (Cloudbreak Therapeutics, LLC, priority 2016, dated 2020)
